Results: patent US12173088B2, “Anti-microbial peptides” (priority 2018, dated 2024)
≈ marks a conversion by molar mass, not a printed value. Read-outs that look alike come from different tables or passages of the source. Peptide text beside a SMILES is read from it.

Legend:
S. aureus USA300 = experiment: microbe, parasite or virus in culture; assay type: cell-based, Staphylococcus aureus
Description: The bacterial strains used include the Gram-positive strains Staphylococcus aureus USA300 LAC, S. epidermidis 1457, and Bacillus subtilis 168, as well as the Gram-negative isolates Escherichia coli K12 and Acinetobacter baumannii B2367-12. Additional, drug resistance strains include Gram-positive Enterococcus faecium V286-17 (VRE) and S. aureus M838-17 (MRSA) and Gram-negative E. coli E423-17, E. coli E416-17 (ampC), and P. aeruginosa E411-17. Bacteria were cultivated in tryptic soy broth (TSB) (BD Bioscience, MD).
(§1) The antibacterial activity of peptides was evaluated using a standard broth microdilution protocol with minor modifications as described (Mishra, et al. (2012) J. Am. Chem. Soc., 134:12426-12429). In brief, logarithmic phase bacterial cultures (i.e., optical density at 600 nm≈0.5) were diluted to OD600 0.001 and partitioned into a 96-well polystyrene microplate at 90 μL per well. After treatment with 10 μL of peptide solutions two fold diluted to various concentrations, microplates were incubated at 37° C. overnight and read on a ChroMate® 4300 Microplate Reader at 630 nm (GMI, Ramsey, MN). […] To study the influence of medium conditions on the antimicrobial activity of peptides against S. aureus USA300, up to 200 mM sodium chloride (NaCl), 2 mM of calcium chloride, 5-10% of human serum, mouse plasma, fluid, or supernatants of tissue homogenates were included into the assays.
(§2) The bacterial strains used include the Gram-positive bacteria methicillin-resistant Staphylococcus aureus USA300, Enterococcus faecium V286-17 (VRE), S. aureus M838-17 (MRSA) and Gram-negative bacteria E. coli E423-17, E416-7 (ampC), P. aeruginosa E411-17, PA01, K. pneumoniae E406-17, ATCC13883, and A. baumannii B26-16. Bacteria were cultivated in tryptic soy broth (TSB) from BD Bioscience.
(§3) The antibacterial activity of peptides was evaluated using a standard broth microdilution protocol with minor modifications (Mishra, et al. (2017) Acta Biomater., 49:316-328). In brief, logarithmic phase bacterial cultures (i.e., optical density at 600 nm≈0.5) were diluted to 0.001 OD and aliquoted 90 μL per well into a 96-well polystyrene microplate. Added 10 μL peptides per well with various concentrations, plates were incubated at 37° C., overnight. Post incubation the plates are read at 630 nm using a ChroMate® Microplate Reader (GMI). […] To study the influence of medium conditions on the antimicrobial activity of peptides against S. aureus USA300 at different pHs (6.8, 7.2, and 8.0), 150 mM sodium chloride (NaCl), 5-10% of human serum, mouse plasma, and peritoneal fluid were included into the assays.

K. pneumoniae ATCC 13883 = assay type: cell-based, Klebsiella pneumoniae
Experimental: as §1, §2, §3

[1] = test system: human red blood cells (hRBCs); experiment: Hemolytic assay; assay type: cell-based
Experimental: Briefly, human red blood cells (hRBCs) were washed three times with phosphate buffer saline (PBS) and diluted to a 2% solution (v/v). After peptide treatment, incubation at 37° C. for one hour, and centrifugation at 5000 rpm for 10 minutes, aliquots of the supernatant were carefully transferred to a fresh 96-well microplate. The amount of hemoglobin released was measured at 545 nm. The percent lysis was calculated by assuming 100% release when human blood cells were treated with 2% Triton™ X-100, and 0% release when incubated with PBS buffer. The peptide concentration that caused 50% lysis of hRBCs is defined as HL50. The cell selectivity index (CSI) was calculated as the ratio between HL50 and MIC of the corresponding peptide against a select pathogenic species.
Hemolytic assays of peptides were performed as described (Mishra, et al. (2017) Acta Biomater., 49:316-328). Briefly, human red blood cells (hRBCs) obtained from UNMC Blood Bank. The blood washed 3× with isotonic saline (0.9% NaCl) and diluted to 2% blood cells (v/v). Peptide horine and verine at various concentrations were added into the 2% blood cells and incubated at 37° C. for 1 hour. Post incubation the plates were spun at 2000 rpm for 10 minutes, aliquots of the supernatant were carefully transferred to a fresh 96-well microplate. The amount of cells lysed is proportional to the hemoglobin released and measured at 545 nm using a ChroMate® microplate reader. The percent lysis was calculated by assuming 100% release when human blood cells were treated with 1% Triton™ X-100, and 0% release when incubated with PBS. The peptide concentration that caused 50% lysis of hRBCs is defined as HL50.

E. coli ATCC 25922 = assay type: cell-based, Escherichia coli
Experimental: as §1, §3

P. aeruginosa PAO1 = assay type: cell-based, Pseudomonas aeruginosa
Experimental: as §1, §2, §3

SMILES: CC(C)C[C@H](NC(=O)CN)C(=O)N[C@@H](CC(C)C)C(=O)N[C@@H](CO)C(=O)N[C@@H](CC(C)C)C(=O)N[C@@H](CC(C)C)C(=O)N[C@@H](CO)C(=O)N[C@@H](CC(C)C)C(=O)N[C@@H](CC(C)C)C(=O)NCC(=O)N[C@@H](CCCCN)C(=O)N[C@@H](CC(C)C)C(=O)N[C@@H](C)C(N)=O [DFT513, GLLSLLSLLGKLA] (H-GLLSLLSLLGKLA-NH2; N-terminus assumed)
- MIC S. aureus USA 300 (S. aureus USA300; Table 2, peptides amidated, quantified by UV): 1.56 µM (≈ 2.02 µg/mL)
- MIC K. pneumoniae (K. pneumoniae ATCC 13883; Table 2, quantified by UV): 12.5 to 25 µM
- HL50 ([1]; Table 2, lysis of 50% hRBCs (2% v/v)): <3.1 µM
- MIC E. coli ATCC 25922 (E. coli ATCC 25922; Table 2, quantified by UV): 1.5 to 3.1 µM
- MIC P. aeruginosa PAO1 (P. aeruginosa PAO1; Table 2, quantified by UV): >25 µM

SMILES: CC(C)C[C@H](NC(=O)[C@H](C)NC(=O)[C@H](CCCCN)NC(=O)CNC(=O)[C@H](CC(C)C)NC(=O)[C@H](C)NC(=O)[C@H](CCCCN)NC(=O)[C@H](CC(C)C)NC(=O)[C@H](C)NC(=O)[C@H](CO)NC(=O)[C@H](CC(C)C)NC(=O)[C@H](CC(C)C)NC(=O)CN)C(N)=O [DFT529, GLLSALKALGKAL] (H-GLLSALKALGKAL-NH2; N-terminus assumed)
- MIC S. aureus USA 300 (S. aureus USA300; USA300): 75 µM (≈ 94 µg/mL)
- MIC against S. aureus (S. aureus USA300; USA300): 12.5 to 25 µM
- MIC K. pneumoniae (K. pneumoniae ATCC 13883; ATCC 13883): >25 µM
- HL50 [1]: >50 µM
- MIC E. coli ATCC 25922 (E. coli ATCC 25922; ATCC 25922): 25 µM (≈ 31.3 µg/mL)
- MIC P. aeruginosa PAO1 (P. aeruginosa PAO1; PAO1): >25 µM

SMILES: CC(C)C[C@H](NC(=O)[C@H](CC(C)C)NC(=O)[C@H](CCCCN)NC(=O)CNC(=O)[C@H](CC(C)C)NC(=O)[C@H](CO)NC(=O)[C@H](CC(C)C)NC(=O)[C@H](CO)NC(=O)[C@H](CC(C)C)NC(=O)[C@H](CC(C)C)NC(=O)CN)C(N)=O [DFT524, GLLSL-SL-GKLL] (H-GLLSLSLGKLL-NH2; N-terminus and C-terminus assumed)
- MIC S. aureus USA 300 (S. aureus USA300; USA300): >25 µM
- MIC K. pneumonia ATCC 13883 (K. pneumoniae ATCC 13883; ATCC 13883): >25 µM
- HL50 [1]: >300 µM
- MIC E. coli ATCC 25922 (E. coli ATCC 25922; ATCC 25922): >25 µM
- MIC P. aeruginosa PAO1 (P. aeruginosa PAO1; PAO1): >25 µM

SMILES: CC(C)C[C@H](NC(=O)[C@H](CC(C)C)NC(=O)[C@H](CCCCN)NC(=O)CNC(=O)[C@H](CC(C)C)NC(=O)[C@H](CO)NC(=O)[C@H](CO)NC(=O)[C@H](CC(C)C)NC(=O)[C@H](CC(C)C)NC(=O)CN)C(N)=O [DFT525, GLLS--SL-GKLL] (H-GLLSSLGKLL-NH2; N-terminus and C-terminus assumed)
- MIC S. aureus USA 300 (S. aureus USA300; USA300): >25 µM
- MIC K. pneumonia ATCC 13883 (K. pneumoniae ATCC 13883; ATCC 13883): >25 µM
- HL50 [1]: >300 µM
- MIC E. coli ATCC 25922 (E. coli ATCC 25922; ATCC 25922): >25 µM
- MIC P. aeruginosa PAO1 (P. aeruginosa PAO1; PAO1): >25 µM

SMILES: CC(C)C[C@H](NC(=O)[C@H](CC(C)C)NC(=O)[C@H](CCCCN)NC(=O)CNC(=O)[C@H](CC(C)C)NC(=O)[C@H](C)NC(=O)[C@H](CCCCN)NC(=O)[C@H](CC(C)C)NC(=O)[C@H](C)NC(=O)[C@H](CO)NC(=O)[C@H](CC(C)C)NC(=O)[C@H](CC(C)C)NC(=O)CN)C(N)=O [DFT514, GLLSALKALGKLL] (H-GLLSALKALGKLL-NH2; N-terminus assumed)
- MIC S. aureus USA 300 (S. aureus USA300; USA300): 1.56 µM (≈ 2.02 µg/mL)
- MIC K. pneumoniae (K. pneumoniae ATCC 13883; ATCC 13883): 3.1 µM (≈ 4.02 µg/mL)
- HL50 [1]: 36 µM
- MIC E. coli ATCC 25922 (E. coli ATCC 25922; ATCC 25922): 3.1 µM (≈ 4.02 µg/mL)
- MIC P. aeruginosa PAO1 (P. aeruginosa PAO1; PAO1): >25 µM

SMILES: CC(C)C[C@H](NC(=O)[C@H](CC(C)C)NC(=O)[C@H](CCCCN)NC(=O)CNC(=O)[C@H](CC(C)C)NC(=O)[C@H](CC(C)C)NC(=O)[C@H](CO)NC(=O)[C@H](CC(C)C)NC(=O)[C@H](CC(C)C)NC(=O)[C@H](CO)NC(=O)[C@H](CC(C)C)NC(=O)[C@H](C)NC(=O)CN)C(N)=O [DFT506, GALSLLSLLGKLL] (H-GALSLLSLLGKLL-NH2; N-terminus assumed)
- MIC S. aureus USA 300 (S. aureus USA300; USA300): 0.78 µM (≈ 1.01 µg/mL)
- MIC K. pneumoniae (K. pneumoniae ATCC 13883; ATCC 13883): 6.2 µM (≈ 8.04 µg/mL)
- HL50 [1]: 4 µM
- MIC E. coli ATCC 25922 (E. coli ATCC 25922; ATCC 25922): 3.1 µM (≈ 4.02 µg/mL)
- Activity against Pseudomonas aeruginosa PAO1 (P. aeruginosa PAO1): active
- MIC P. aeruginosa PAO1 (P. aeruginosa PAO1; PAO1): 12.5 µM (≈ 16.2 µg/mL)

SMILES: CC(C)C[C@H](NC(=O)[C@H](CC(C)C)NC(=O)[C@H](CCCCN)NC(=O)CNC(=O)[C@H](CC(C)C)NC(=O)[C@H](CC(C)C)NC(=O)[C@H](CO)NC(=O)[C@H](CC(C)C)NC(=O)[C@H](CC(C)C)NC(=O)[C@H](CO)NC(=O)[C@H](C)NC(=O)[C@H](CC(C)C)NC(=O)CN)C(N)=O [DFT507, GLASLLSLLGKLL] (H-GLASLLSLLGKLL-NH2; N-terminus assumed)
- MIC S. aureus USA 300 (S. aureus USA300; USA300): 0.78 µM (≈ 1.01 µg/mL)
- MIC K. pneumoniae (K. pneumoniae ATCC 13883; ATCC 13883): >25 µM
- HL50 [1]: <3.1 µM
- MIC E. coli ATCC 25922 (E. coli ATCC 25922; ATCC 25922): >25 µM
- MIC P. aeruginosa PAO1 (P. aeruginosa PAO1; PAO1): >25 µM

SMILES: CC(C)C[C@H](NC(=O)[C@H](C)NC(=O)[C@H](CCCCN)NC(=O)CNC(=O)[C@H](CC(C)C)NC(=O)[C@H](C)NC(=O)[C@H](CCCCN)NC(=O)[C@H](CC(C)C)NC(=O)[C@H](C)NC(=O)[C@H](CO)NC(=O)[C@H](CC(C)C)NC(=O)[C@H](C)NC(=O)CN)C(N)=O [DFT530, GALSALKALGKAL] (H-GALSALKALGKAL-NH2; N-terminus assumed)
- MIC S. aureus USA 300 (S. aureus USA300; USA300): >25 µM
- Antimicrobial activity (S. aureus USA300; at 25 μM): inactive
- MIC K. pneumoniae (K. pneumoniae ATCC 13883; ATCC 13883): >25 µM
- HL50 [1]: >100 µM
- MIC E. coli ATCC 25922 (E. coli ATCC 25922; ATCC 25922): >25 µM
- MIC P. aeruginosa PAO1 (P. aeruginosa PAO1; PAO1): >25 µM

SMILES: CC(C)C[C@H](NC(=O)[C@H](CC(C)C)NC(=O)[C@H](CCCCN)NC(=O)CNC(=O)[C@H](CC(C)C)NC(=O)[C@H](C)NC(=O)[C@H](CCCCN)NC(=O)[C@H](CC(C)C)NC(=O)[C@H](C)NC(=O)[C@H](CO)NC(=O)[C@H](CC(C)C)NC(=O)[C@H](C)NC(=O)CN)C(N)=O [DFT528, GALSALKALGKLL] (H-GALSALKALGKLL-NH2; N-terminus assumed)
- MIC S. aureus USA 300 (S. aureus USA300; USA300): 25 µM (≈ 31.3 µg/mL)
- MIC against S. aureus (S. aureus USA300; USA300): 12.5 to 25 µM
- MIC K. pneumoniae (K. pneumoniae ATCC 13883; ATCC 13883): >25 µM
- HL50 [1]: >50 µM
- MIC E. coli ATCC 25922 (E. coli ATCC 25922; ATCC 25922): 25 µM (≈ 31.3 µg/mL)
- MIC P. aeruginosa PAO1 (P. aeruginosa PAO1; PAO1): >25 µM
